According to ChEMBL document CHEMBL2311358, “Inhibitors of HIV-1 attachment. Part 7: indole-7-carboxamides as potent and orally bioavailable antiviral agents” (Bioorg Med Chem Lett, 2013):
In brackets after ≈: the same amount, converted by molar mass.

What was measured:
[1] = Cytotoxicity against human HeLa cells expressing CD4 assessed as cell viability after 6 days by XTT assay; type: cell-based
[2] = Aqueous solubility of the compound in crystalline form at pH 6.5; type: physicochemical
[3] = Permeability across human Caco2 cells at pH 6.5; type: ADME, cell-based; details: Caco-2, pH 6.5, read-out: permeability
[4] = test system: Human immunodeficiency virus 1; experiment: Antiviral activity against HIV1 JRFL infected in human HeLa cells expressing CD4 and CCR5 assessed as inhibition of single-cycle viral replication by luciferase reporter gene assay; type: functional, organism-based; details: Human immunodeficiency virus 1, JRFL
[5] = Clearance in rat at 1 mg/kg, iv; type: ADME, organism-based; parameters: dose 1 mg/kg, route intravenous; details: in vivo
[6] = Half life in human liver microsomes; type: ADME, Microsome
[7] = Oral bioavailability in rat at 5 mg/kg; type: ADME, organism-based; details: in vivo
[8] = Cmax in rat at 1 mg/kg, iv and 5 mg/kg, po; type: ADME, organism-based; details: in vivo
[9] = Cmax in dog at 1 mg/kg, iv and 2.5 mg/kg, po; type: ADME, organism-based, Canis lupus familiaris; details: in vivo
[10] = AUC in dog at 1 mg/kg, iv and 2.5 mg/kg, po; type: ADME, organism-based, Canis lupus familiaris; details: plasma
[11] = Half life in dog at 1 mg/kg, iv; type: ADME, organism-based, Canis lupus familiaris; parameters: dose 1 mg/kg, route intravenous; details: in vivo
[12] = Plasma protein binding in human; type: ADME, cell-free; details: read-out: PPB (converted)
[13] = Oral bioavailability in dog at 2.5 mg/kg; type: ADME, organism-based, Canis lupus familiaris; details: in vivo
[14] = Inhibition of CYP450 (unknown origin); type: ADME, Homo sapiens
[15] = Oral bioavailability in monkey at 2.5 mg/kg; type: ADME, organism-based, Macaca mulatta; details: rhesus monkey, in vivo
[16] = Half life in rat at 1 mg/kg, iv; type: ADME, organism-based; parameters: dose 1 mg/kg, route intravenous; details: in vivo
[17] = Cmax in monkey at 1 mg/kg, iv and 2.5 mg/kg, po; type: ADME, organism-based, Macaca mulatta; details: rhesus monkey, in vivo
[18] = AUC in rat at 1 mg/kg, iv and 5 mg/kg, po; type: ADME, organism-based; details: plasma
[19] = Solubility of the compound in amorphous form in PEG 400 at pH 6.5; type: physicochemical; details: PEG 400, pH 6.5
Hepatocyte = experiment: Cytotoxicity against human hepatocytes expressing CYP3A4, CYP2C9, CYP2C19, CYP2D6; type: ADME, cell-based
[20] = AUC in monkey at 1 mg/kg, iv and 2.5 mg/kg, po; type: ADME, organism-based, Macaca mulatta; details: rhesus monkey, plasma
[21] = Half life in monkey at 1 mg/kg, iv; type: ADME, organism-based, Macaca mulatta; parameters: dose 1 mg/kg, route intravenous; details: rhesus monkey, in vivo

Row | EC50 [4] [nM] | Structure (SMILES) | CC50 at 144 h [1] [nM] | also measured
1 | 1.24 | O=C(C(=O)N1CCN(C(=O)c2ccccc2)CC1)c1c[nH]c2cccc(F)c12 | > 300000 | solubility ([2]; buffer): 0.005 µg/mL (≈ 0.0132 µM); Papp [3]: 10 ×10⁻⁶ cm/s; clearance [5]: 48 mL/min/kg; half-life [6]: > 1.67 h
2 | 0.65 | O=C(Nc1ccccn1)c1ccc(F)c2c(C(=O)C(=O)N3CCN(C(=O)c4ccccc4)CC3)c[nH]c12 | 69000 | –
3 | 0.4 | O=C(Nc1nnn[nH]1)c1ccc(F)c2c(C(=O)C(=O)N3CCN(C(=O)c4ccccc4)CC3)c[nH]c12 | > 300000 | Papp [3]: < 1.5 ×10⁻⁶ cm/s; bioavailability [7]: < 1%; half-life [6]: > 1.67 h
4 | 0.19 | O=C(Nc1nncs1)c1ccc(F)c2c(C(=O)C(=O)N3CCN(C(=O)c4ccccc4)CC3)c[nH]c12 | 1740 | –
5 | 3.07 | CCn1nccc1NC(=O)c1ccc(F)c2c(C(=O)C(=O)N3CCN(C(=O)c4ccccc4)CC3)c[nH]c12 | 166000 | –
6 | 0.94 | Cc1cc(NC(=O)c2ccc(F)c3c(C(=O)C(=O)N4CCN(C(=O)c5ccccc5)CC4)c[nH]c23)on1 | > 300000 | –
7 | 0.02 | O=C(NC1=NCCS1)c1ccc(F)c2c(C(=O)C(=O)N3CCN(C(=O)c4ccccc4)CC3)c[nH]c12 | > 300000 | –
8 | 0.057 | O=C(Nc1nccs1)c1ccc(F)c2c(C(=O)C(=O)N3CCN(C(=O)c4ccccc4)CC3)c[nH]c12 | 89000 | Papp [3]: > 30 ×10⁻⁶ cm/s; half-life [6]: 0.0683 h
9 | 0.0058 | Cc1csc(NC(=O)c2ccc(F)c3c(C(=O)C(=O)N4CCN(C(=O)c5ccccc5)CC4)c[nH]c23)n1 | 29000 | –
10 | 0.32 | O=C(Nc1nc2ccccc2s1)c1ccc(F)c2c(C(=O)C(=O)N3CCN(C(=O)c4ccccc4)CC3)c[nH]c12 | 81000 | –
11 | 0.04 | O=C(Nc1nc2ccccc2[nH]1)c1ccc(F)c2c(C(=O)C(=O)N3CCN(C(=O)c4ccccc4)CC3)c[nH]c12 | 9200 | –
12 | 0.21 | O=C(Nc1nc(-c2ccccc2)cs1)c1ccc(F)c2c(C(=O)C(=O)N3CCN(C(=O)c4ccccc4)CC3)c[nH]c12 | > 300000 | –
13 | 1.3 | O=C(NCc1ccco1)c1ccc(F)c2c(C(=O)C(=O)N3CCN(C(=O)c4ccccc4)CC3)c[nH]c12 | 71000 | –
14 | 1.06 | O=C(NCc1cccs1)c1ccc(F)c2c(C(=O)C(=O)N3CCN(C(=O)c4ccccc4)CC3)c[nH]c12 | 44000 | –
15 | 1.08 | O=C(NCCc1cc2ccccc2[nH]1)c1ccc(F)c2c(C(=O)C(=O)N3CCN(C(=O)c4ccccc4)CC3)c[nH]c12 | > 300000 | –
16 | 2.64 | CS(=O)(=O)NC(=O)c1ccc(F)c2c(C(=O)C(=O)N3CCN(C(=O)c4ccccc4)CC3)c[nH]c12 | > 300000 | –
17 | 0.29 | O=C(NS(=O)(=O)c1ccccc1)c1ccc(F)c2c(C(=O)C(=O)N3CCN(C(=O)c4ccccc4)CC3)c[nH]c12 | > 300000 | Papp [3]: 1.5 ×10⁻⁶ cm/s; bioavailability [7]: < 2%; half-life [6]: > 1.67 h
18 | 0.76 | COc1ccc(C(N)=O)c2[nH]cc(C(=O)C(=O)N3CCN(C(=O)c4ccccc4)CC3)c12 | 244000 | –
19 | 0.76 | CNC(=O)c1ccc(OC)c2c(C(=O)C(=O)N3CCN(C(=O)c4ccccc4)CC3)c[nH]c12 | > 300000 | Papp [3]: 3.9 ×10⁻⁶ cm/s; half-life [6]: 0.667 h

Row | EC50 [4] [nM] | Structure (SMILES) | CC50 at 144 h [1] [nM] | also measured
20 | 0.14 | C[C@@H]1CN(C(=O)c2ccccc2)CCN1C(=O)C(=O)c1c[nH]c2c(C(N)=O)ccc(F)c12 | 141000 | Papp [3]: 5.1 ×10⁻⁶ cm/s; half-life [6]: 0.417 h
21 | 0.75 | CNC(=O)c1ccc(F)c2c(C(=O)C(=O)N3CCN(C(=O)c4ccccc4)C[C@H]3C)c[nH]c12 | > 300000 | –
22 | 7.59 | NC(=O)c1ccc(F)c2c(C(=O)C(=O)N3CCN(C(=O)c4ccccn4)CC3)c[nH]c12 | > 300000 | –
23 | 1.42 | C[C@@H]1CN(C(=O)c2ccccn2)CCN1C(=O)C(=O)c1c[nH]c2c(C(N)=O)ccc(F)c12 | > 300000 | –
24 | 3.37 | O=C(Nc1ccncc1)c1ccc(F)c2c(C(=O)C(=O)N3CCN(C(=O)c4ccccc4)CC3)c[nH]c12 | > 300000 | –
25 | 9.09 | O=C(Nc1cccnc1)c1ccc(F)c2c(C(=O)C(=O)N3CCN(C(=O)c4ccccc4)CC3)c[nH]c12 | 132000 | –
26 | 2.03 | NC(=O)c1ccc(F)c2c(C(=O)C(=O)N3CCN(C(=O)c4ccccc4)CC3)c[nH]c12 | > 300000 | Papp [3]: 2.4 ×10⁻⁶ cm/s; bioavailability [7]: 21%; half-life [6]: > 1.67 h
27 | 0.52 | CNC(=O)c1ccc(F)c2c(C(=O)C(=O)N3CCN(C(=O)c4ccccc4)CC3)c[nH]c12 | > 300000 | Cmax [8]: 843 ng/mL; Cmax [9]: 1560 ng/mL; AUC [10]: 7030 ng·h/mL; half-life [11]: 2.32 h; solubility ([2]; aqueous, read-out: solubility): 33 µg/mL (≈ 75.6 µM); fraction unbound [12]: 0.011; bioavailability [13]: 93%; Papp [3]: 11.2 ×10⁻⁶ cm/s; IC50 [14]: > 90000 nM; bioavailability [15]: 70%; bioavailability [7]: 65%; clearance [5]: 12 mL/min/kg; half-life [16]: 2.18 h; half-life [6]: 1.35 h; Cmax [17]: 1330 ng/mL; AUC [18]: 4620 ng·h/mL; solubility [19]: 18000 µg/mL (≈ 41200 µM); IC50 (Hepatocyte): > 57000 nM; AUC [20]: 3430 ng·h/mL; half-life [21]: 4.18 h
28 | 407 | CN(C)C(=O)c1ccc(F)c2c(C(=O)C(=O)N3CCN(C(=O)c4ccccc4)CC3)c[nH]c12 | > 300000 | –
29 | 3.83 | CONC(=O)c1ccc(F)c2c(C(=O)C(=O)N3CCN(C(=O)c4ccccc4)CC3)c[nH]c12 | > 300000 | –
30 | 2.69 | NNC(=O)c1ccc(F)c2c(C(=O)C(=O)N3CCN(C(=O)c4ccccc4)CC3)c[nH]c12 | > 300000 | –
31 | 18.8 | COCCNC(=O)c1ccc(F)c2c(C(=O)C(=O)N3CCN(C(=O)c4ccccc4)CC3)c[nH]c12 | 298000 | –
32 | 12.8 | NCCNC(=O)c1ccc(F)c2c(C(=O)C(=O)N3CCN(C(=O)c4ccccc4)CC3)c[nH]c12 | 135000 | –
33 | 316 | CN(C)CCNC(=O)c1ccc(F)c2c(C(=O)C(=O)N3CCN(C(=O)c4ccccc4)CC3)c[nH]c12 | > 300000 | –
34 | 7.95 | O=C(NCCN1CCOCC1)c1ccc(F)c2c(C(=O)C(=O)N3CCN(C(=O)c4ccccc4)CC3)c[nH]c12 | > 300000 | –
35 | 11.2 | CC(=O)N1CC(NC(=O)c2ccc(F)c3c(C(=O)C(=O)N4CCN(C(=O)c5ccccc5)CC4)c[nH]c23)C1 | > 300000 | –
36 | 109 | O=C(NCc1ccccc1)c1ccc(F)c2c(C(=O)C(=O)N3CCN(C(=O)c4ccccc4)CC3)c[nH]c12 | > 300000 | –
37 | 6.73 | O=C(NCc1nc2ccccc2[nH]1)c1ccc(F)c2c(C(=O)C(=O)N3CCN(C(=O)c4ccccc4)CC3)c[nH]c12 | > 300000 | –
38 | 0.75 | COc1ncc(OC)c2c(C(=O)C(=O)N3CCN(C(=O)c4ccccc4)CC3)c[nH]c12 | > 300000 | –
